Experimental data from patent US12270064B2, “Peptide for complexing zinc ion, complex thereof and use therefor” (Guangzhou University, priority 2020, dated 2025).
No end group written: not given here.

Experiment: Complexing rate / complexing ability of zinc ion of soybean peptide fractions
Format: binding
Settings: HPLC separation of F2, FIG. 2

## KYKRQRW [F21, single peptide component purified by HPLC from F2; also made by solid phase peptide synthesis]
  complexing ability with zinc ion, ranking among HPLC fractions: strongest complexing ability with zinc ion
